From US7378409B2, “Substituted cycloalkylamine derivatives as modulators of chemokine receptor activity” (Bristol-Myers Squibb Company, priority 2003, dated 2008) come the findings set out here.

The series can be described thus: Long-term storage stability of the isolated salt. Format: physicochemical. The settings on record: TFA salt of the title compound; converted to free base for that reason. How it is done:
Example 3a, Step 5: A solution of (1R,3R,4S)-3-butyl-N1-isopropyl-N1-methylcyclohexane-1,4-diamine (58 mg, 0.25 mmol) in methylene chloride (5 mL) was charged successively with HATU (113 mg, 0.29 mmol), 2-(5-(trifluoromethyl)-1H-indazol-3-ylamino)acetic acid (58 mg, 0.22 mmol), and N,N-diisopropylethylamine (0.22 mL, 1.24 mmol). The reaction was stirred for 16 h at RT, concentrated in vacuo, and diluted with EtOAc. The organic phase was washed successively with sat. NaHCO3, water, 1N HCl, water, and brine before being dried (sodium sulfate), filtered, and concentrated in vacuo. […] Accordingly, this material was dissolved in EtOAc and the organic phase was washed with sat. NaHCO3 and brine before being dried (sodium sulfate), filtered, and concentrated in vacuo to afford the free base of the title compound, N-((1S,2R,4R)-2-butyl-4-(isopropyl(methyl)amino)cyclohexyl)-2-(5-(trifluoromethyl)-1H-indazol-3-ylamino)acetamide. MS found: (M+H)^+=468.4.

Consider `CCCC[C@@H]1C[C@H](N(C)C(C)C)CC[C@@H]1NC(=O)CNc1n[nH]c2ccc(C(F)(F)F)cc12` [Example 3a, N-((1S,2R,4R)-2-butyl-4-(isopropyl(methyl)amino)cyclohexyl)-2-(5-(trifluoromethyl)-1H-indazol-3-ylamino)acetamide], for which the “stability to long-term storage” value is given as “unstable to long-term storage”.
